Assay results taken from ChEMBL document CHEMBL1201862, “PubChem BioAssay data set” (2004).
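Growth conditions: 96-well plates. Treatment: test compound, 48 hours, 5 concentrations. Analysis: linear interpolation between bracketing concentrations; unreached endpoints set to highest concentration. The concentration for 50% growth inhibition is given as GI50.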 Calls of active or inactive are those of the source. Rule as the data show it: active = GI50 up to about 1.1 µM and inactive = higher.

How the values were obtained:
Assay in all cases: growth of human tumour cells (NCI), 48 h
[1] = tested on: SK-MEL-28
[2] = tested on: MDA-N
[3] = tested on: Malme-3M
[4] = tested on: TK-10
[5] = tested on: ACHN
[6] = tested on: MCF7
[7] = tested on: SF-268
[8] = tested on: SF-295
[9] = tested on: OVCAR-4
[10] = tested on: SW-620
[11] = tested on: HCT-116
[12] = tested on: DU-145
[13] = tested on: CAKI-1
[14] = tested on: SNB-19
[15] = tested on: UO-31
[16] = tested on: U-251
[17] = tested on: IGROV-1
[18] = tested on: NCI-H460
[19] = tested on: HCC 2998
[20] = tested on: SNB-75

Structure (SMILES)	GI50 [1]	GI50 [2]	GI50 [3]	GI50 [4]	GI50 [5]	GI50 [6]	GI50 [7]	GI50 [8]	GI50 [9]	GI50 [10]	GI50 [11]	GI50 [12]	GI50 [13]	GI50 [14]	GI50 [15]	GI50 [16]	GI50 [17]	GI50 [18]	GI50 [19]	GI50 [20]
O=C1N2CCc3c([nH]c4ccccc34)C23CC2CCCC12S3 (centres undefined)	45.3 µM (inactive)	27.9 µM (inactive)	27.6 µM (inactive)	> 50 µM (inactive)	37.3 µM (inactive)	18.7 µM (inactive)	36.1 µM (inactive)	20.3 µM (inactive)	41 µM (inactive)	> 50 µM (inactive)	20.6 µM (inactive)	39.4 µM (inactive)	> 50 µM (inactive)	> 50 µM (inactive)	32 µM (inactive)	> 50 µM (inactive)	24.8 µM (inactive)	–	–	–
COc1ccc(Cn2c3c(cc(OS(=O)(=O)C(F)(F)F)c2=O)Cc2ccccc2-3)cc1	18.7 µM (inactive)	12.9 µM (inactive)	16.2 µM (inactive)	22.3 µM (inactive)	21.6 µM (inactive)	–	12.8 µM (inactive)	18.9 µM (inactive)	19.3 µM (inactive)	10.3 µM (inactive)	14.9 µM (inactive)	20.2 µM (inactive)	20.9 µM (inactive)	19.1 µM (inactive)	7.33 µM (inactive)	19.2 µM (inactive)	22.5 µM (inactive)	3.56 µM (inactive)	11.7 µM (inactive)	> 50 µM (inactive)
C=CCN1C[C@@H](C)N([C@@H](c2ccccc2)c2ccc(C(=O)N(CC)CC)cc2)C[C@@H]1C	> 100 µM (inactive)	> 100 µM (inactive)	> 100 µM (inactive)	–	> 100 µM (inactive)	> 100 µM (inactive)	> 100 µM (inactive)	> 100 µM (inactive)	> 100 µM (inactive)	> 100 µM (inactive)	> 100 µM (inactive)	> 100 µM (inactive)	> 100 µM (inactive)	> 100 µM (inactive)	> 100 µM (inactive)	> 100 µM (inactive)	> 100 µM (inactive)	–	–	–
CC(=O)Nc1nnc(S(C)(=O)=O)s1	> 100 µM (inactive)	> 100 µM (inactive)	> 100 µM (inactive)	> 100 µM (inactive)	> 100 µM (inactive)	> 100 µM (inactive)	> 100 µM (inactive)	> 100 µM (inactive)	–	> 100 µM (inactive)	> 100 µM (inactive)	> 100 µM (inactive)	–	> 100 µM (inactive)	> 100 µM (inactive)	> 100 µM (inactive)	–	> 100 µM (inactive)	–	–
Cn1c(=O)c2nc(SCc3ccccn3)[nH]c2n(C)c1=S	> 100 µM (inactive)	> 100 µM (inactive)	> 100 µM (inactive)	86.7 µM (inactive)	> 100 µM (inactive)	> 100 µM (inactive)	> 100 µM (inactive)	34.2 µM (inactive)	> 100 µM (inactive)	> 100 µM (inactive)	> 100 µM (inactive)	> 100 µM (inactive)	> 100 µM (inactive)	56 µM (inactive)	70.5 µM (inactive)	46.7 µM (inactive)	> 100 µM (inactive)	> 100 µM (inactive)	–	19.5 µM (inactive)
CN1CCN(CC(=O)N2c3ccccc3Sc3cc4ccccc4cc32)CC1	14.6 µM (inactive)	10 µM (inactive)	13.6 µM (inactive)	15.7 µM (inactive)	16.4 µM (inactive)	15.8 µM (inactive)	11.6 µM (inactive)	14.7 µM (inactive)	15.5 µM (inactive)	20.4 µM (inactive)	10.1 µM (inactive)	15.9 µM (inactive)	13.1 µM (inactive)	18.4 µM (inactive)	13.2 µM (inactive)	14.3 µM (inactive)	16.5 µM (inactive)	16 µM (inactive)	–	14.5 µM (inactive)
CC(=O)CC(C)(C)NC(=O)[C@@]1(O)CC[C@H]2[C@@H]3CCC4=CC(=O)CC[C@@H]4[C@H]3CC[C@@]21C	> 100 µM (inactive)	> 100 µM (inactive)	> 100 µM (inactive)	> 100 µM (inactive)	> 100 µM (inactive)	–	> 100 µM (inactive)	> 100 µM (inactive)	> 100 µM (inactive)	> 100 µM (inactive)	> 100 µM (inactive)	> 100 µM (inactive)	–	> 100 µM (inactive)	> 100 µM (inactive)	> 100 µM (inactive)	> 100 µM (inactive)	> 100 µM (inactive)	> 100 µM (inactive)	> 100 µM (inactive)
CC(C)(C)c1cc(C(C)(C)C)c2sc(=S)oc2c1O	8.09 µM (inactive)	6.01 µM (inactive)	15.8 µM (inactive)	1.18 µM (inactive)	8.53 µM (inactive)	6.79 µM (inactive)	3.4 µM (inactive)	10.5 µM (inactive)	11.7 µM (inactive)	9.1 µM (inactive)	6.25 µM (inactive)	11.7 µM (inactive)	5.64 µM (inactive)	12.7 µM (inactive)	4.12 µM (inactive)	6.3 µM (inactive)	9.98 µM (inactive)	6.1 µM (inactive)	–	6.49 µM (inactive)
CN(C)CCNc1c([N+](=O)[O-])sc2ccc(Cl)cc12	> 100 µM (inactive)	–	26.9 µM (inactive)	91 µM (inactive)	6.01 µM (inactive)	7.36 µM (inactive)	18.3 µM (inactive)	17.6 µM (inactive)	12.6 µM (inactive)	3.77 µM (inactive)	–	80.4 µM (inactive)	–	26.2 µM (inactive)	20 µM (inactive)	18.3 µM (inactive)	26.1 µM (inactive)	5.38 µM (inactive)	15.7 µM (inactive)	14.5 µM (inactive)
C1=N\c2ccc(cc2)-c2ccc(cc2)/N=C\c2ccc(cc2)OCc2cccc(n2)COc2ccc/1cc2	> 100 µM (inactive)	> 100 µM (inactive)	33 µM (inactive)	–	> 100 µM (inactive)	> 100 µM (inactive)	16.1 µM (inactive)	79.4 µM (inactive)	> 100 µM (inactive)	> 100 µM (inactive)	> 100 µM (inactive)	> 100 µM (inactive)	> 100 µM (inactive)	38.9 µM (inactive)	> 100 µM (inactive)	45.5 µM (inactive)	> 100 µM (inactive)	> 100 µM (inactive)	–	64.7 µM (inactive)
CN(c1ccccc1)S(=O)(=O)c1ccc([N+](=O)[O-])cc1	> 100 µM (inactive)	> 100 µM (inactive)	40.6 µM (inactive)	> 100 µM (inactive)	> 100 µM (inactive)	> 100 µM (inactive)	> 100 µM (inactive)	> 100 µM (inactive)	> 100 µM (inactive)	> 100 µM (inactive)	> 100 µM (inactive)	> 100 µM (inactive)	> 100 µM (inactive)	> 100 µM (inactive)	> 100 µM (inactive)	> 100 µM (inactive)	–	> 100 µM (inactive)	–	–
S=C(c1c[nH]c2ccccc12)N1CCOCC1	> 100 µM (inactive)	> 100 µM (inactive)	25 µM (inactive)	> 100 µM (inactive)	> 100 µM (inactive)	> 100 µM (inactive)	14.1 µM (inactive)	> 100 µM (inactive)	–	> 100 µM (inactive)	> 100 µM (inactive)	> 100 µM (inactive)	> 100 µM (inactive)	> 100 µM (inactive)	45.8 µM (inactive)	> 100 µM (inactive)	36.3 µM (inactive)	> 100 µM (inactive)	–	0.52 µM (active)
COc1nc(C#CC(C)(C)C)nc(OC)n1	37.2 µM (inactive)	12.4 µM (inactive)	19 µM (inactive)	27.4 µM (inactive)	39 µM (inactive)	19 µM (inactive)	26.2 µM (inactive)	32.4 µM (inactive)	16.4 µM (inactive)	25 µM (inactive)	15.7 µM (inactive)	23.6 µM (inactive)	22.3 µM (inactive)	> 100 µM (inactive)	28.7 µM (inactive)	39.2 µM (inactive)	39.4 µM (inactive)	26.8 µM (inactive)	–	33.6 µM (inactive)
CCN(CC)c1c(-c2c(N(CC)CC)c(OC(C)=O)c3sccn3c2=O)c(=O)n2ccsc2c1OC(C)=O	> 100 µM (inactive)	> 100 µM (inactive)	> 100 µM (inactive)	33.2 µM (inactive)	> 100 µM (inactive)	–	39.9 µM (inactive)	32 µM (inactive)	> 100 µM (inactive)	> 100 µM (inactive)	71 µM (inactive)	> 100 µM (inactive)	> 100 µM (inactive)	59.6 µM (inactive)	93.1 µM (inactive)	37.5 µM (inactive)	68.1 µM (inactive)	> 100 µM (inactive)	> 100 µM (inactive)	19.4 µM (inactive)
CCOP(=O)(OCC)C(Nc1ccc(Cl)cc1)c1ccc(F)cc1 (centres undefined)	18.4 µM (inactive)	19.9 µM (inactive)	19.1 µM (inactive)	42.7 µM (inactive)	28.4 µM (inactive)	–	20.1 µM (inactive)	19.8 µM (inactive)	36.2 µM (inactive)	> 10 µM (inactive)	19.2 µM (inactive)	24.5 µM (inactive)	22.3 µM (inactive)	26.7 µM (inactive)	20.7 µM (inactive)	18.2 µM (inactive)	> 10 µM (inactive)	19.5 µM (inactive)	22 µM (inactive)	20.5 µM (inactive)
